Measurements: patent US20200248178A1, “COMBINATION THERAPIES FOR TREATING MUSCULAR DYSTROPHY” (Sarepta Therapeutics, Inc., priority 2017, published 2020)
Values joined by “and” are separate entries in the source; they are usually repeats but may differ in a detail not shown here. Equal values may be shown once.

Experiments:
[1] = test system: NF-κB pathways; conditions: phase I, adults; cited from earlier work
[2] = test system: NF-κB; conditions: cited from earlier work
[3] = test system: Mdx mice; conditions: cited from earlier work
[4] = test system: cNF-κB; conditions: cited from earlier work
[5] = test system: patient cells; conditions: cited from earlier work
[6] = test system: mouse model of DMD; conditions: cited from earlier work
[7] = test system: dystrophin; test: Study 201/202 Week 180 muscle biopsy, Western blot; format: in vivo, human
Protocol: (§1) All 12 patients who participated in Study 1 continued treatment with open-label EXONDYS 51® weekly for an additional 4 years in Study 2. The 4 patients who had been randomized to placebo were re-randomized 1:1 to EXONDYS 51® 30 or 50 mg/kg/week such that there were 6 patients on each dose. Patients who participated in Study 2 were compared to an external control group. The primary clinical efficacy outcome measure was the 6MWT. […] The average dystrophin protein level after 180 weeks of treatment with EXONDYS 51® was 0.93% of the dystrophin level in healthy subjects.
(§2) In order to obtain a comprehensive view of dystrophin expression, biopsies from Study 201/202 were analyzed by three complementary assays. First, Western blot was used to quantitate dystrophin following extraction of protein from muscle tissue. Second, immunohistochemical (IHC) images were evaluated by trained, blinded pathologists to assess the percent dystrophin positive fibers (PDPF), providing information on sarcolemma localization and distribution of dystrophin in muscle fibers. Finally, the IHC images were also assessed by a computer algorithm to measure fiber intensity and to quantify dystrophin at the sarcolemmal membrane.

[8] = test system: exon 51 of dystrophin pre-mRNA; conditions: hDMD mouse model; cited from earlier work
[9] = test system: dystrophin; test: Study 201/202 Week 180 biopsy, IHC percent dystrophin positive fibers (PDPF); format: in vivo, human
Protocol: as §2

[10] = test system: DMD patients amenable to exon 51 skipping; test: Loss of ambulation, Study 201/202 vs external controls; format: in vivo, human
Source text: Ambulatory compromise and irreversible loss of ambulation (LOA) are hallmarks of the progressive muscle degeneration characteristic of DMD. It is a reliable overall indicator of the severity of disease progression and strongly correlates with functional measures such as the 6MWT; it is also less influenced by motivational factors. Furthermore, LOA predicts other major disease milestones such as the need for ventilatory support and survival (Bello 2016). Once confined to a wheelchair, other symptoms tend to follow in rapid succession. Consistent with results of the 6MWT, fewer eteplirsen treated boys lost ambulation (2/12) compared to the external control patients who were amenable to exon 51 skipping therapy (10/13) over the four year time period.
Kaplan-Meier analyses for loss of ambulation were conducted, accounting for missing data. At year three the estimated probability for loss of ambulation was 17% for eteplirsen treated boys compared to 46% of boys from both external control cohorts. At year four, Kaplan-Meier estimates of loss of ambulation was 17% for eteplirsen treated boys compared to 85% for the external control boys amenable to exon 51 skipping. This difference in loss of ambulation over the 4-year period was statistically significant, with a nominal p-value of 0.011 (FIG. 8).

[11] = test system: exon 51 of dystrophin pre-mRNA; conditions: normal human skeletal muscle cells or DMD patient muscle cells; cited from earlier work
[12] = test system: dystrophin; test: Study 201/202 Week 180 biopsy, IHC fiber intensity; format: in vivo, human
Protocol: as §2

[13] = test system: DMD patients; test: Pulmonary function tests (FVC % predicted); format: in vivo, human; conditions: literature >5% annual decline
Source text: In some embodiments, MEP may decline before changes in other pulmonary function tests, including MIP and FVC. In certain embodiments, MEP may be an early indicator of respiratory dysfunction. In certain embodiments, FVC may be used to measure the total volume of air expelled during forced exhalation after maximum inspiration. In patients with DMD, FVC increases concomitantly with physical growth until the early teens. However, as growth slows or is stunted by disease progression, and muscle weakness progresses, the vital capacity enters a descending phase and declines at an average rate of about 8 to 8.5 percent per year after 10 to 12 years of age. In certain embodiments, MIP percent predicted (MIP adjusted for weight), MEP percent predicted (MEP adjusted for age) and FVC percent predicted (FVC adjusted for age and height) are supportive analyses.
Respiratory function in DMD is progressively impaired over time as the dystrophic process affects respiratory muscles, including the diaphragm, leading to significant morbidity and mortality. Eteplirsen treated boys had slower deterioration of respiratory muscle function as measured by FVC % predicted (decrease of ˜2.5% per year) when compared to data from the published literature (>5% annual decline). […]

[14] = test system: DMD patients amenable to exon 51 skipping; test: 6 Minute Walk Test, Study 201/202 vs external control; format: in vivo, human
Protocol: In Study 1, patients were randomized to receive weekly infusions of EXONDYS 51° (30 mg/kg, n=4); EXONDYS 51° (50 mg/kg, n=4), or placebo (n=4) for 24 weeks. The primary endpoint was dystrophin production; a clinical outcome measure, the 6-minute walk test (6MWT), was also assessed. The 6MWT measures the distance that a patient can walk on a flat, hard surface in a period of 6 minutes.
as §1
The pre-specified criteria for identification of patients for the external control groups were based on the inclusion criteria for Study 201/202. These included baseline age, steroid use and specific DMD mutation. Each of these represent key prognostic factors that enable identification of a relatively homogenous population that would be expected to decline on the 6MWT.
A group with DMD mutations amenable to exon 51 skipping therapy (N=13, primary external control group).
The 6MWT assessments in both Study 201/202 and the external registries were conducted in a standardized manner according to international guidelines.

[15] = test system: DMD patients; test: Ability to rise from supine without external support; format: in vivo, human; conditions: by year three; external control 8%
Source text: The ability to rise from supine is a critical activity for DMD patients, is one of the early abilities to be lost and may be predictive of loss of ambulation. In an analysis comparing the ability to rise from a supine position (without external support), 92% of eteplirsen treated vs 85% external control patients had the ability to rise without external support at baseline. By year three, 55% of eteplirsen vs 8% of external control patients had the ability to rise without external support.

[16] = test system: immune response; set-up: species or system juvenile rats; conditions: rat, in vivo
Source text: Phosphorothioates are known to cause a number of other target organ toxicities in animals, including complement activation and pro-inflammatory effects, coagulopathies, thrombocytopenia, vascular injury, and hepatic Kuppfer cell basophilia (Levin 1998; Monteith 1999; Levin 2001; Henry 2008; Frazier 2014; Engelhardt 2015; Frazier 2015).

[17] = test system: dystrophin; test: Study 3 (Study 301): dystrophin in muscle biopsy by Western blot; format: in vivo, human
Protocol: Dystrophin levels in muscle tissue were assessed by Western blot. In the 12 patients with evaluable results, the pre-treatment dystrophin level was 0.16%±0.12% (mean±standard deviation) of the dystrophin level in a healthy subject and 0.44%±0.43% after 48 weeks of treatment with EXONDYS 51® (p<0.05). The median increase after 48 weeks was 0.1%.

[18] = test system: DMD patients; test: North Star Ambulatory Assessment (NSAA); format: in vivo, human; conditions: end of year three; vs Italian Telethon group
Source text: The NSAA is a clinician-reported outcome instrument specifically designed to measure function in ambulatory patients with DMD. The 17 items are each scored on a 0-2 ordinal scale and include assessments of abilities such as rising from the floor, climbing and descending a step, 10 meter walk/run and lifting the head. Over the first year, both the eteplirsen treated boys and the Italian Telethon group declined at a similar rate. However, following year one, as was observed on 6MWT, the decline in function for the eteplirsen group slowed and by the end of year three there was a 2.4 point greater decline for the untreated boys. This difference is of clinical relevance and may represent loss or impairment of up to 2 activities of daily living.

In the case of `CC/C=C\C/C=C\C/C=C\C/C=C\C/C=C\C/C=C\CCC(=O)NCCNC(=O)c1ccccc1O` [CAT-1004, N-(2-[(4Z,7Z,10Z,13Z,16Z,19Z)-docosa-4,7,10,13,16,19-hexaenamido]ethyl)-2-hydroxybenzamide], the safety and tolerability [1] is given as “safe, well tolerated”.
In the case of `CC/C=C\C/C=C\C/C=C\C/C=C\C/C=C\CCCC(=O)NCCNC(=O)c1ccccc1O` [CAT-1041], the phenotype ([2]; GRMD dog, long-term treatment) is given as “improves the phenotype”, the diaphragm function ([2]; dog DMD model) is given as “improved diaphragm function” and the exercise endurance ([3]; mdx mice) is given as “increased exercise endurance”. The inflammation and fibrosis ([3]; mdx mice) was “reduced inflammation and fibrosis”, the muscle function ([3]; mdx mice) was “preserves muscle function” and the muscle fibrosis ([3]; mdx mice, long-term studies) was “reduces muscle fibrosis”. For the same molecule, the skeletal muscle weight ([3]; mdx mice, long-term studies) was “increases skeletal muscle weight”, the phenotype ([3]; mdx mouse, long-term treatment) was “improves the phenotype” and the diaphragm function ([3]; mouse DMD model) was “improved diaphragm function”. For the same molecule, the “cNF-κB activation in vitro” value [4] was “inhibit cNF-κB activation in vitro”.
In the case of `O=C1CN(/N=C/c2ccc(-c3ccc([N+](=O)[O-])cc3)o2)C(O)=N1` [dantrolene], the antisense-mediated exon skipping [5] is given as “enhance antisense-mediated exon skipping” and the antisense-mediated exon skipping [6] is given as “enhance antisense-mediated exon skipping”.
In the case of Eteplirsen, the “Difference of Means (Treated vs. Untreated)” value (from here on “Difference of Means”) ([7]; Western Blot, Week 180) is reported as “+0.85%”, the “Treated (Mean % Dystrophin of Normal)” value ([7]; Western Blot, Week 180) is reported as 0.93% and the “Fold Increase in de novo dystrophin” value ([7]; Western Blot, Week 180, relative to untreated controls) is reported as 11.6 fold. For the same molecule, the “average dystrophin protein level after 180 weeks of treatment” value ([7]; Western blot, eleven patients, 30 or 50 mg/kg/week) was 0.93 % of the dystrophin level in healthy subjects, the “exon 51 skipping in vivo” value [8] was “confirmed in vivo” and the “Difference of Means” value [9] was “+16.27%”. For the same molecule, the “Treated (Mean % Dystrophin of Normal)” value [9] was 17.39%, the “Fold Increase” value ([9]; treated vs untreated) was 15.5 fold and the “boys who lost ambulation” value ([10]; over a three year time period, external control (any exon skipping) 18/50) was 2/12. The “boys who lost ambulation” value ([10]; over the four year time period, external control 10/13) was 2/12, the “Kaplan-Meier estimate of loss of ambulation” value ([10]; year four, external control 85%, p 0.011) was 17% and the “Kaplan-Meier estimated probability for loss of ambulation” value ([10]; year three, external controls 46%) was 17%. The “induction of exon 51 skipping in vitro” value [11] was “potent inducer of exon 51 skipping”, the “Difference of Means” value [12] was “+13.20%” and the “Treated (Mean % Dystrophin of Normal)” value [12] was 22.61%. For the same molecule, the “Fold Increase” value ([12]; treated vs untreated) was 2.4 fold, the “FVC % predicted decrease” value [13] was about 2.5 % per year and the “6MWT treatment benefit in sensitivity analyses” value ([14]; four year results, covariates age, 6MWT, steroid use) was over 100 meter. For the same molecule, the “6MWT advantage vs external control” value ([14]; year four, p=0.0005) was 162 meter, the “6MWT advantage vs external control” value ([14]; year three, N=12 vs N=13, p=0.005) was 148 meter and the “patients with ability to rise without external support” value [15] was 55%. The “effect on the immune response” value [16] was “no adverse effect on the immune response”, the “Week 48 % normal dystrophin” value ([17]; 30 mg/kg weekly, week 48, individual patients 1-12 and mean, listed as EXONDYS 51, 30 mg/kg) was 0.10 % normal dystrophin and 1.02 % normal dystrophin and 0.30 % normal dystrophin and 0.42 % normal dystrophin and 1.57 % normal dystrophin and 0.12 % normal dystrophin and 0.47 % normal dystrophin and 0.09 % normal dystrophin and 0.21 % normal dystrophin and 0.26 % normal dystrophin and 0.36 % normal dystrophin and 0.37 % normal dystrophin and the “median increase in dystrophin after 48 weeks” value ([17]; 12 evaluable patients) was 0.1%. For the same molecule, the “dystrophin level after 48 weeks of treatment (mean±standard deviation)” value ([17]; 12 evaluable patients, 30 mg/kg weekly, p<0.05 vs pre-treatment) was 0.44%±0.43%, the “Change from Baseline % normal dystrophin” value ([17]; week 48 vs pre-treatment baseline, individual patients 1-12 and mean, listed as EXONDYS 51) was 0.06 % normal dystrophin and 0.85 % normal dystrophin and −0.07 % normal dystrophin and 0.25 % normal dystrophin and 1.33 % normal dystrophin and 0.01 % normal dystrophin (2×) and 0.43 % normal dystrophin and 0.07 % normal dystrophin and 0.03 % normal dystrophin and 0.13 % normal dystrophin and 0.31 % normal dystrophin and the “NSAA: greater decline for the untreated boys” value [18] was 2.4 point.
